The values that follow come from patent US9212205B2, “Nucleic acid binding compounds and methods of use” (University of Rochester, priority 2007, dated 2015).

Data set [1] is classed as physicochemical. Here is the method:
The oxidation of 1-1 (FIG. 13, Scheme 2) to the disulfoxide was achieved by reacting 1-1 with H2O2 (1.1 eq.) and MoClO2 (0.05 eq) in 1:1 acetonitrile:water for 15 minutes, followed by purification by RP-HPLC (Jeyakumar et al., “Selective Oxidation of Sulfides to Sulfoxides and Sulfones at Room Temperature Using H2O2 and Mo(VI) Salt as Catalyst,” Tettrahedron Letters 47:4573-76 (2006), which is hereby incorporated by reference in its entirety).

Data set [2] has as its target HIV-1 frameshift-inducing RNA stem-loop (SEQ ID NO:1). As to the kind of experiment: Fluorescence titration of Cy-3 labeled HIV-1 RNA stem-loop. It is filed as binding. The following applies: freshly prepared compound; read-out: KD, fluorescence titration with the HIV1 frameshift inducing stemloop. Here is the method:
The binding of dicarba analogs to the HIV-1 frameshift-inducing RNA was measured using fluorescence spectroscopy. Fluorescence titrations were performed on a Varian Cary eclipse fluorescence spectrophotometer using 1 cm path-length quartz fluorescence cell. The solution of Cy-3 labeled HIV-1 RNA stem-loop in PBS buffer (400 μL, 400 nM) was taken in the cell and excited with a wavelength of 550 nm. A PMT voltage of 715 V was used for collecting the fluorescence data and the emission spectrum was collected from 555 to 600 nm wavelength range. The ligand solution in PBS buffer was added to the target RNA in the cell in either 2 or 4 μL increments and was allowed to equilibrate for 10 minutes before recording the emission spectrum. Statistical analysis of the data was carried out using Origin 7 (OriginLab corporation). Binding constants were determined by fitting the data to one-site binding model equation.
A 5′-Cy3 labeled upper stem-loop of HIV-1 RNA (SEQ ID NO:1) was titrated with increasing amount of the dicarba analogs in a phosphate buffer (PBS, pH 7.4) using the same protocol to that described in Example 3 above. The fluorescence intensity of the labeled RNA stem-loop decreased as a function of the ligand concentration. […] Normally, one would expect a greater difference between the affinities of the two isomers.
To further evaluate the binding selectivity of dicarba analogs to the frameshift-inducing stem-loop, fluorescence titrations were repeated in the presence of twenty-fold excess concentration of yeast tRNA. […] In an interesting result it was discovered that the monomeric compound (5) also bound to the HIV-1 RNA stem-loop with similar affinity as that of the other analogs, but the binding affinity was diminished in the presence of tRNA. […] Quinoline is a known intercalator of nucleotide bases and has the capability to interact with RNA non-specifically. But it is the peptidic part of the molecule in ligands 5-5 E and 5-5 Z that imparts specificity to the interaction between the ligand and the RNA stem-loop. The peptidic part on monomer 5 is insufficient to impart specificity to the interaction as evident from the results.

For the molecule `CCc1nc2ccccc2cc1C(=O)N[C@@H](C[S+]([O-])[S+]([O-])C[C@H](NC(=O)c1cc2ccccc2nc1CC)C(=O)N1CCC[C@H]1C(=O)N[C@@H](Cc1ccccc1)C(=O)NCCCN)C(=O)N1CCC[C@H]1C(=O)N[C@@H](Cc1ccccc1)C(=O)NCCCN` (some centres unmarked) [1-1 disulfoxide], the degradation after synthesis result in data set [1] is “degraded within a few hours of synthesis”. The Kd in data set [2] stood at 410 nM.
